Structures are written as SMILES. Square brackets hold non-standard residues; d marks the D form. Peptide text beside a SMILES is read from it. * marks the point of attachment. ξ: configuration not given here. Hydrocinnamoyl = O=C(CCc1ccccc1)*; Thz = O=C(O)[C@@H]1CSCN1; Cbz = O=C(OCc1ccccc1)*; ξPip = O=C(O)C1CCCCN1; CH2Cl = ClC*

T1 sequence (Q9XTA2 whole entry): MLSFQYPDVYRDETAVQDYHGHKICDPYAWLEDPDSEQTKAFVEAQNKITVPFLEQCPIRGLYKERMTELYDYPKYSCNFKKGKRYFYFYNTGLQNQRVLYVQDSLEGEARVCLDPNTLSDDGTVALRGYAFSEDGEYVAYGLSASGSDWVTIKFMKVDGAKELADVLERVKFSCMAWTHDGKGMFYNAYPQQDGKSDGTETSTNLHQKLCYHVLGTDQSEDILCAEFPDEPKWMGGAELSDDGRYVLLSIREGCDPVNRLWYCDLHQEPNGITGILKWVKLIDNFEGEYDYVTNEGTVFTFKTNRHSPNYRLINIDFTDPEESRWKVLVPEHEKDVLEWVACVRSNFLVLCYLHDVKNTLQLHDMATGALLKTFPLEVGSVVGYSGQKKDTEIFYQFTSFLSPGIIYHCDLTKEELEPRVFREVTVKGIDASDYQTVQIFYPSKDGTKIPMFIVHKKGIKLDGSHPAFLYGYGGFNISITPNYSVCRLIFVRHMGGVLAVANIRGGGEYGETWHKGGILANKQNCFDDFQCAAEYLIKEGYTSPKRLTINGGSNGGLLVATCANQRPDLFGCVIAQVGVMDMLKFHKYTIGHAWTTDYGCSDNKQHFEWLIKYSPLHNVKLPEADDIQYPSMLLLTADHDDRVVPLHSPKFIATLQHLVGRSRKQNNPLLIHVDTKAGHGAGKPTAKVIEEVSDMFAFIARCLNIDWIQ

The first experiment has as its target T1, prolyl endopeptidase (Bos taurus, UniProt Q9XTA2).
T1 construct: purified from bovine brain; from tissue; host or cells: bovine brain
Description: Prolyl endopeptidase inhibitory activity in vitro.
Settings: not given
In kind it is biochemical, bovine. The method, then:
Inhibitory activity of prolyl endopeptidase in vitro was measured by the following test system.
A mixed solution of 20 mM tris-HCl buffer (pH 7.5; 935 μl; containing 10 mM EDTA and 10 mM mercaptoethanol), a solution of a compound of the present invention in DMSO (10 μl) and a solution of prolyl endopeptidase which was purified from bovine brain (0.13 unit; prepared by the method described in J. Biochem., 94, 1179 (1983)) in tris-HCl buffer (15 μl) was preincubated for 15 mins at 37° C.
To the solution, 5 mM of N-benzyloxycarbonyl-glycyl-prolyl-p-nitroanilide (40 μl) in a mixture of 40% dioxane--60% water was added. Ths solution was incubated for 1 min at the same temperature.
Optical absorption (a1) at 405 nm of the solution, and optical absorption (a2) at 405 nm of the solution after more 30 mins' incubation at 37° C. were measured.
Optical absorptions (b1 and b2) of the solutions using DMSO instead of the solution of the compound of the present invention were also measured.
Inhibitory ratio was calculated by the following expression and IC50 (required concentration for 50% inhibition) was obtained (See Protein, Nucleic acid and Enzyme 25(6), 513, 1980.). [formula]
Compound `O=C[C@@H]1CSCN1C(=O)/C=C/c1ccc(CCCCCc2ccccc2)cc1` [1 (g), (4R)3-[4-(5-phenylpentyl)cinnamoyl]thiazolidin-4-al] had an IC50 of 4800 nM.

Still in this experiment, the particulars now being: in vitro; purified from bovine brain; pH 7.5, 37° C.; substrate N-benzyloxycarbonyl-glycyl-prolyl-p-nitroanilide; 405 nm; read-out: Concentration for 50% inhibition IC50.
For `O=C[C@@H]1CSCN1C(=O)CCCCCCCCCc1ccccc1` [1 (b), (4R)3-(10-phenyldecanoyl) thiazolidin-4-al], the IC50 was determined as 730 nM.
The same measure, in the same setting: the figure for `CC(C)C(CCCCCc1ccccc1)C(=O)N1CSC[C@H]1C=O` (stereo partly drawn) [1 (c), (4R)3-(2-isopropyl-7-phenylheptanoyl)thiazolidin-7-al] is 87 nM.
The same measure, in the same setting: next, `O=C[C@@H]1CSCN1C(=O)CCCOCc1ccccc1` [1 (i), (4R)3-(4-benzyloxybutyryl) thiazolidin-4-al]: 8100 nM.
The same measure, in the same setting: the figure for `O=C[C@@H]1CSCN1C(=O)CCC(=O)CCCc1ccccc1` [1 (k), (4R)3-(4-oxo-7-phenylheptanoyl) thiazolidin-4-al] is 16 nM; for `O=C[C@@H]1CSCN1C(=O)C1CCC[C@H]1C(=O)CCc1ccccc1` (stereo partly drawn) [1 (l), (4R)3-[(2R)2-(3-phenylpropionyl)cyclopentanecarbonyl]thiazolidin-4-al] it is 22 nM.
For the compound `O=C[C@@H]1CSCN1C(=O)C1CCCCN1C(=O)CCc1ccccc1` (stereo partly drawn) [1 (n), (4R)3-[1-(3-phenylpropionyl)piperidine-2-carbonyl]thiazolidin-4-al] (Hydrocinnamoyl-[ξPip]-[Thz]-aldehyde), the IC50 stood at 20 nM.
For `CC(C)C(NC(=O)CCCc1ccccc1)C(=O)N1CSC[C@H]1C=O` (stereo partly drawn) [1 (q), (4R)3-[2-(4-phenylbutyrylamino)-3-methylbutyryl]thiazolidin-4-al], the IC50 turned out to be 5.7 nM.
The same measure, in the same setting: next, `O=C[C@@H]1CSCN1C(=O)CCC(=O)N(Cc1ccccc1)c1ccccc1` [1 (s), (4R)3-[3-(Nbenzyl-Nphenylcarbamoyl)propionyl]thiazolidin-4-al]: 6.8 nM; `COc1ccc(CNC(=O)CCC(=O)N2CSC[C@H]2C=O)cc1` [1 (t), (4R)3-[3-[N(4-methoxybenzyl)carbamoyl]propionyl]thiazolidin-4-al]: 35 nM; `O=C[C@@H]1CSCN1C(=O)C1CCCC1C(=O)NCc1ccccc1` (stereo partly drawn) [1 (v), (4R)3-[2-[Nbenzylcarbamoyl)cyclopentanecarbonyl]thiazolidin-4-al]: 83 nM.

Another experiment relates to prolyl endopeptidase.
Assay: not given
The settings on record: See J. Neurochem., 41, 69(1983); cited from earlier work.
For `O=C(NCC(=O)N1CCC[C@H]1C(=O)CCl)OCc1ccccc1` [N-benzyloxycarbonyl-glycyl-L-prolyl-chloromethane] (Cbz-Gly-Pro-CH2Cl), the “inhibition of prolyl endopeptidase (in words)” value was “strongly inhibit”.

The values are drawn from US4857537A, “Novel thiazolidine derivatives” (Ono Pharmaceutical Co., Ltd., priority 1987, dated 1989).
